The text below walks through data of patent US12398355B2, “Micro physiological model for neuronal and muscular diseases and disorders” (Massachusetts Institute of Technology, priority 2019, dated 2025).

Series [1] concerns 3D motor unit model (hESC-derived MN spheroid and iPSC-derived skeletal muscle fiber bundle with NMJ). The series is classed as cell-based, human.
The test system of the next series is in vitro co-culture. Nature of the series: Side effects of high drug concentrations in in vitro co-culture. The series is classed as cell-based. Particulars: in vitro co-culture condition.
Series [2] relates to 3D motor unit model (MN spheroid and skeletal muscle fiber bundle).
The subject of series [3] is ALS motor unit (iALS-MN spheroid and iPSC-derived skeletal muscle fiber bundle). Description: Drug treatment of ALS motor unit model, muscle contraction by optical stimulation. As to conditions: 1-Hz optical stimulation, n=180; untreated ALS ~32.3%. The series is classed as cell-based, human. On the procedure:
Epifluorescence and confocal images were acquired using a Zeiss Axiovert 200 microscope and an Olympus FV-1000 confocal microscope, respectively. 3D reconstruction and analysis of confocal images were performed with IMARIS software (Bitplane). Muscle contraction measurement was performed in a stage-top incubator (INUBG2TF-WSKM-SET, Tokai Hit) on Axiovert 200, and image sequences were captured using AxioVision. Automated tracking of the local deformation of the skeletal muscle cells and deflection of the pillars upon light excitation were carried out using ImageJ and Python script with an OpenCV package. Formulas for calculating muscle contraction force from pillar displacements include:
To avoid single-cell attachment to the glass bottom, the microfluidic device was incubated with 4% Pluronic F-127 (Sigma) in the incubator for 1 hour, rinsed with distilled water, and dried. […]
hESC-derived NSCs and iPSC-derived NSCs from a patient with sporadic ALS were infected with an AAV-CAG-ChR2H134R-tdTomato-WPRE plasmid to express a mutated variant of the light-sensitive ion channel, channelrhodopsin-2H134R. […] The cells were cultured for 4 days, expanded for another 3 days, and sorted by fluorescence-activated cell sorting (BD Biosciences, FACSAria II) with strong expression of tdTomato. […]

Consider `NC1=N[C@H](O)[C@H]2[C@H]3O[C@]4(O)O[C@@H]([C@@H](O)[C@@]2(N1)[C@@H]4O)[C@]3(O)CO` [TTX, tetrodotoxin], for which, in series [1], the “muscle contraction after rinsing away the TTX” value is recorded as “partially recovered” and the “muscle contraction under TTX” value is “completely prevented muscle contraction”.
In the case of `COc1cc(Nc2c(C#N)cnc3cc(OCCCN4CCN(C)CC4)c(OC)cc23)c(Cl)cc1Cl` [bosutinib], the “concentration that can cause side effects” value in the series with in vitro co-culture is on record as “over 800 uM”.
As for `N[C@@H](CCC(=O)O)C(=O)O` [glutamic acid], in series [2], the average contraction force is listed as around 0.5 pN; the “average frequency of muscle contractions” value is recorded as 0.7 Hz; the “morphology after prolonged treatment” value is “neurite regression and muscle atrophy”; the “muscle contraction after prolonged treatment” value is “no muscle contraction was observed”. Also, in series [2], the muscle contraction force entry is on record as “relatively decreased”, the muscle contraction frequency entry is “dropped”, the “muscle contraction with chemical stimulation” value is “significant loss of function” and the “muscle contraction with electrical stimulation” value is “no significant difference”. In series [2], the “neurotoxic effect / myotoxicity” value is on record as “mainly caused a neurotoxic effect but no observable myotoxicity”.
Regarding `CO[C@H]1C[C@@H]2CC[C@@H](C)[C@@](O)(O2)C(=O)C(=O)N2CCCC[C@H]2C(=O)O[C@H]([C@H](C)C[C@@H]2CC[C@@H](O)[C@H](OC)C2)CC(=O)[C@H](C)/C=C(\C)[C@@H](O)[C@@H](OC)C(=O)[C@H](C)C[C@H](C)/C=C/C=C/C=C/1C` [rapamycin], the “missed muscle contractions after light stimulation” value in series [3] is on record as around 16.1%. Besides, the “concentration that can cause side effects” value with in vitro co-culture is reported as “over 1 uM”.
Turning to α-bungarotoxin [αBTX], the “muscle contraction in the presence of αBTX” value in series [1] is “completely inhibited”.
